Assay results reported in ChEMBL document CHEMBL1123759, “Nonequilibrium opioid antagonist activity of 6,14-dideoxynaltrexone derivatives” (1987).

Assays:
Format in all cases: functional
[1] = organism: Mus musculus; experiment: Compound was evaluated for irreversible antagonist activity in Mouse vas deference(MVD) agonist (DADLE) IC50 after antagonist treatment (50 nM) divided by the agonist control IC50
[2] = organism: Cavia porcellus; experiment: Compound was evaluated for irreversible antagonist activity in Guinea pig ileum (GPI) agonist (morphine) IC50 after antagonist treatment (20 nM) divided by the agonist control IC50
[3] = organism: Mus musculus; experiment: Compound was evaluated for agonist activity in Mouse vas deferens (MVD)
[4] = organism: Cavia porcellus; experiment: Compound was evaluated for irreversible antagonist activity in Guinea pig ileum (GPI) agonist (ethylketazocine) IC50 after antagonist treatment (20 nM) divided by the agonist control IC50
[5] = organism: Cavia porcellus; experiment: Compound was evaluated for agonist activity in Guinea pig ileum (GPI)
[6] = organism: Mus musculus; experiment: Compound was evaluated for irreversible antagonist activity in Mouse vas deference(MVD) agonist (morphine) IC50 after antagonist treatment (50 nM) divided by the agonist control IC50
[7] = organism: Cavia porcellus; experiment: Compound was evaluated for agonist activity in Guinea pig ileum (GPI) partial agonist (potency ratio is based on IC10 value for compound and morphine)
[8] = organism: Cavia porcellus; experiment: Compound was evaluated for irreversible antagonist activity in Guinea pig ileum (GPI)agonist (ethylketazocine) IC50 after antagonist treatment (200 nM) divided by the agonist control IC50
[9] = organism: Cavia porcellus; experiment: Compound was evaluated for irreversible antagonist activity in Guinea pig ileum (GPI) agonist (morphine) IC50 after antagonist treatment (200 nM) divided by the agonist control IC50 (Tissue was treated with 200 nM compound rather than 20 nM)
[10] = organism: Cavia porcellus; experiment: Compound was evaluated for irreversible antagonist activity in Guinea pig ileum (GPI) agonist (morphine) IC50 after antagonist treatment (200 nM) divided by the agonist control IC50

| Structure (SMILES) | IC50 ratio [1] | IC50 ratio [2] | Potency ratio [3] | IC50 ratio [4] | Potency ratio [5] | IC50 ratio [6] | Potency ratio [7] | IC50 ratio [8] | IC50 ratio [9] | IC50 ratio [10] |
| --- | --- | --- | --- | --- | --- | --- | --- | --- | --- | --- |
| CN(CCCl)[C@@H]1CCC2C3Cc4ccc(O)c5c4C2(CCN3CC2CC2)[C@H]1O5 (some centres undefined) | 46.77 | 125 | 380 | 6.25 | 154 | 51 |  |  |  |  |
| O=C(CI)N[C@@H]1CCC2C3Cc4ccc(O)c5c4C2(CCN3CC2CC2)[C@H]1O5 (some centres undefined) | 2.4 | 3.05 | 25.3 | 1.03 | 6.27 | 15.6 |  |  |  |  |
| COC(=O)/C=C/C(=O)N[C@@H]1CC[C@@]2(O)[C@H]3Cc4ccc(O)c5c4[C@@]2(CCN3CC2CC2)[C@H]1O5 | 1.8 | 6 | 4.4 | 1 | 5 | 3.9 |  |  |  |  |
| Oc1ccc2c3c1O[C@H]1[C@H](N=C=S)CCC4C(C2)N(CC2CC2)CCC341 (some centres undefined) | 1.96 | 4.8 | 4.5 | 1.58 |  | 11.5 | 3.1 | 2.29 | 70 |  |
| COC(=O)/C=C/C(=O)N[C@@H]1CCC2C3Cc4ccc(O)c5c4C2(CCN3CC2CC2)[C@H]1O5 (some centres undefined) | 2.29 | 1.58 | 18 | 1.33 | 17.62 | 4.12 |  | 0.5 |  | 2.77 |
